# Where two headings read alike, the source gives them in different places. Residues, ends and D or L forms follow the SMILES beside them.
# How the values were obtained:
# [1] = tested on: TTX-S sodium channels from rat DRG neurons; test: Whole-cell patch clamp, TTX-S sodium currents in rat DRG neurons; type: cell-based, rat (Sprague-Dawley); details: 25 °C
# [2] = tested on: TTX-R sodium channels from rat DRG neurons; test: Whole-cell patch clamp, TTX-R sodium currents in rat DRG neurons; type: cell-based, rat (Sprague-Dawley); details: 1 µM synthetic JZTX-34; 100 nM TTX in external solution; −10 mV from −80 mV
# [3] = tested on: Nav1.2; test: Whole-cell patch clamp, Nav1.2 in HEK293 cells; type: cell-based, rat; details: 1 µM, −10 mV from −80 mV
# Source text: Nine sodium channel subtypes have been identified and classified as TTX-S (Nav1.1–Nav1.4, Nav1.6, and Nav1.7) or TTX-R types (Nav1.5, Nav1.8, and Nav1.9). […] However, the subtype selectivity of JZTX-34 on the subtype of sodium channel is still unknown. In this work, effects of JZTX-34 on VGSC subtypes (Nav1.1–Nav1.8) were examined. Nav1.1–Nav1.7 were transfected into HEK293 cells and Nav1.8 currents were expressed in ND cells. Inward sodium currents were elicited by a 50 ms depolarizing potential to −10 mV from a holding potential of −80 mV every 5 s. […] No effects on other sodium channel subtypes were found (Nav1.1, Nav1.2, Nav1.4–Nav1.6, and Nav1.8) (Figure S2). […]
# (§1) The HEK293T cells were maintained in standard culture conditions (5% CO2 and 37 °C). […] After culturing for 36–72 h, cells with obvious green fluorescence were selected for sodium currents recordings the internal solution for sodium currents recording that contained (in mM) 140 CsF, 5 NaCl, 10 HEPES, 3 Na2-ATP, and 10 EGTA. […]
# (§2) Sodium currents were recorded from DRG, HEK293, and ND cells by the whole-cell patch-clamp technique at 25 °C. […] Experiments date were acquired from whole-cell Axon 700B patch clamp amplifier (Molecular Devices, Sunnyvale, CA, USA) and analyzed by the program Clampfit10.0 (Molecular Devices, Sunnyvale, CA, USA) and Sigmaplot. […]
# [4] = tested on: Nav1.6; test: Whole-cell patch clamp, Nav1.6 in HEK293 cells; type: cell-based; details: 1 µM, −10 mV from −80 mV
# Source text: Nine sodium channel subtypes have been identified and classified as TTX-S (Nav1.1–Nav1.4, Nav1.6, and Nav1.7) or TTX-R types (Nav1.5, Nav1.8, and Nav1.9). […] However, the subtype selectivity of JZTX-34 on the subtype of sodium channel is still unknown. In this work, effects of JZTX-34 on VGSC subtypes (Nav1.1–Nav1.8) were examined. Nav1.1–Nav1.7 were transfected into HEK293 cells and Nav1.8 currents were expressed in ND cells. Inward sodium currents were elicited by a 50 ms depolarizing potential to −10 mV from a holding potential of −80 mV every 5 s. […] No effects on other sodium channel subtypes were found (Nav1.1, Nav1.2, Nav1.4–Nav1.6, and Nav1.8) (Figure S2).
# as §1, with “°C). Then, 10% fetal bovine serum was added to Dulbecco’s modified Eagle’s medium.” for “°C).”
# as §2
# [5] = tested on: Nav1.7; test: Gating properties of Nav1.7 (current-voltage, steady-state activation and inactivation); type: cell-based, human
# Method: We investigated the effects of this toxin on the gating properties of Nav1.7. The current-voltage relationship of Nav1.7 was investigated using step depolarization ranging from −80 to +80 mV from a holding potential of −80 mV. Under control conditions, the threshold of initial activation was about −40 mV, and the inward current peaked at −20 mV. […] The midpoint of channel activation before and after application of 1 µM toxin was −27.9 ± 3.3 and −28.1 ± 2.9 mV, respectively (Figure S3B). […] The effect of JZTX-34 on steady-state inactivation was also investigated using a standard two-pulse protocol as described in the legend. […]
# cDNA genes encoding rat Nav1.1, Nav1.2, Nav1.3, Nav1.4, Nav1.5, human Nav1.7 (hNav1.7), and hNav1.8 were subcloned into the vectors pRGB4 and pcDNA3.1-mod, respectively. The chimera of Nav1.5 (Nav1.7-DII-S3-S4) and Nav1.7 (Nav1.5-DIV-S3-S4) were constructed according the methods described previously. Mutations of Nav1.5 and Nav1.7 were constructed using QuikChange II XL Site-Directed Mutagenesis kit (Agilent Technologies Inc, Palo Alto, CA, USA). All chimera and mutations were sequenced to determine the right sequences.
# The HEK293T cells were maintained in standard culture conditions (5% CO2 and 37 °C). Then, 10% fetal bovine serum was added to Dulbecco’s modified Eagle’s medium. Sodium channel subtypes (Nav1.1–Nav1.5, Nav1.7), the chimera and mutants of Nav1.5 and Nav1.7 with β1subnit tagged with eGFP in a molar ratio of 2:1, were transiently co-transfected into HEK293 cells using Lipofectamine 3000 (Invitrogen, Carlsbad, CA, USA). Nav1.8, β1subnit, and eGFP were co-transfected into ND cells using the same protocol. After culturing for 36–72 h, cells with obvious green fluorescence were selected for sodium currents recordings the internal solution for sodium currents recording that contained (in mM) 140 CsF, 5 NaCl, 10 HEPES, 3 Na2-ATP, and 10 EGTA. […]
# as §2
# Data from Axon 700B patch clamp were analyzed by Clampfit10.0 (Molecular Devices, Sunnyvale, CA, USA). […] The G-V curves were obtained by calculating the conductance (G) at each voltage (V) using the equation G = I/(V1 − Vrev), with Vrev being the reversal potential determined for each cell individually. […] All the results from patch clamp and animal models are expressed as means ± standard error of the mean (SEM). Statistical significance was calculated using Student’s t-test and was defined as p < 0.05. […]
# [6] = tested on: acetic acid-induced writhing response in mice; type: in vivo, mouse (Kunming); details: counted 30 min after 0.8% acetic acid i.p., control 61, n = 6
smiles,measurement,setting,value
"CC(C)C[C@@H]1NC(=O)[C@H](Cc2c[nH]c3ccccc23)NC(=O)[C@H](CCC(=O)O)NC(=O)[C@H](CCCNC(=N)N)NC(=O)[C@@H](NC(=O)[C@H](C)N)CSSC[C@@H]2NC(=O)[C@@H]3CSSC[C@@H](C(=O)N[C@H](C(=O)N[C@@H](Cc4c[nH]c5ccccc45)C(=O)N[C@@H](CC(=O)O)C(=O)N[C@@H](Cc4c[nH]c5ccccc45)C(=O)N[C@H](C(=O)N[C@H](C(=O)O)C(C)C)[C@@H](C)O)C(C)C)NC(=O)[C@H](Cc4c[nH]cn4)NC(=O)[C@H](Cc4ccc(O)cc4)NC(=O)[C@@H]4CCCN4C(=O)[C@H](Cc4c[nH]c5ccccc45)NC(=O)[C@H](CCCCN)NC(=O)[C@H](CCCCN)NC(=O)[C@H](CCCNC(=N)N)NC(=O)[C@H](CSSC[C@H](NC(=O)CNC(=O)CNC1=O)C(=O)N[C@@H](CO)C(=O)N[C@@H](CCCCN)C(=O)N[C@@H](CC(=O)O)C(=O)N[C@@H](C)C(=O)N[C@@H](CC(=O)O)C(=O)N3)NC(=O)[C@H](CCC(=O)O)NC(=O)[C@H](CC(C)C)NC(=O)[C@H](Cc1c[nH]cn1)NC(=O)[C@H](C)NC2=O [JZTX-34, Jingzhaotoxin-34] (HELM PEPTIDE1{A.C.R.E.W.L.G.G.C.S.K.D.A.D.C.C.A.H.L.E.C.R.K.K.W.P.Y.H.C.V.W.D.W.T.V}$PEPTIDE1,PEPTIDE1,2:R3-16:R3|PEPTIDE1,PEPTIDE1,9:R3-21:R3|PEPTIDE1,PEPTIDE1,15:R3-29:R3$$$V2.0; N-terminus and C-terminus assumed)",inhibition of TTX-S sodium currents,"[1]; 1 µM synthetic JZTX-34, 50 ms depolarization to −10 mV from −80 mV",~ 81%
same,IC50,"[1]; synthetic toxin, Hill fit, n = 5, −10 mV from −80 mV holding",91 nM
same,effect on TTX-R sodium currents,[2],had no effect on TTX-R sodium currents
same,effect on Nav1.2 currents,[3],No effects
same,effect on Nav1.6 currents,[4],No effects
same,shift of steady-state inactivation,[5]; 1 µM,small hyperpolarizing shift in the steady-state inactivation
same,midpoint of steady-state inactivation with toxin,"[5]; 1 µM, ""with or without"" toxin −67.3 and −73.7 mV, respectively, 500 ms prepulse −100 to −10 mV, test pulse −10 mV 20 ms, n = 5",about −67.3 mV
same,current-voltage relationship of Nav1.7,"[5]; 1 µM, steps −80 to +80 mV from −80 mV holding",did not alter the current-voltage relationship
same,midpoint of channel activation after toxin,"[5]; after 1 µM toxin (before: −27.9 ± 3.3 mV), Boltzmann fit, n = 5",−28.1 ± 2.9 mV
same,number of writhing,[6]; 0.5 mg/kg i.p.,38
same,number of writhing,[6]; 1 mg/kg i.p.,26
same,number of writhing,[6]; 2 mg/kg i.p.,11

# From publication PMC5848165 (Toxins, 2018)
